Measured values published in patent publication US20260137091A1, “NEW PEPTIDES AND THE USE OF SAME FOR MODULATING ACCUMULATION OF A PROTEIN” (priority 2022, published 2026).

System: NSP1-GUS fusion protein
Experiment: Quantification of GUS activity in roots expressing an NSP1-GUS fusion after cPEP treatment
Assay type: in vivo
Conditions: Medicago truncatula transformed roots; treatment for 5 days with 0.1 μM cPEP by spraying; versus control (water)
Method: The y-axis represents the quantification of GUS activity in the roots of an NSP1-GUS fusion in response to treatment for 5 days with 0.1 μM of a cPEP targeting the 5′UTR region of the NSP1 gene. Error bars represent SEM, asterisks indicate a significant difference between test condition and control according to Student's t-test (n=30, p<0.05).
NSP1::GUS fusion was achieved, using a modified pCambia vector (Lauressergues et al., Nature, 520: 90-3, 2015), by cloning 3 kb of NSP1 promoter, the NSP1 gene coding sequence, the GUS protein coding sequence and 3 kb of the NSP1 gene downstream sequence (FIG. 2).
Root transformation of M. truncatula was carried out using the method described in Boisson-Dernier et al, Mol Plant Microbe Interact, 14(6): 695-700, 2001.
Plants were treated by spraying with a solution containing a low concentration of cPEPs (from 0.1 μM to 10 μM) or with water.
The accumulation of the protein targeted by cPEP was then measured in each plant by quantifying GUS activity or by quantifying protein activity by Western blot (Blizquez M., Quantitative GUS activity assay in intact plant tissue, Cold Spring Harbor Laboratory Press, Cold Spring Harbor, NY, USA, 2002).

Substance | accumulation of the NSP1 protein (quantification of GUS activity in the roots of an NSP1-GUS fusion)
SEQ ID NO: 164: cPEP (10 amino acids) translated from a 30 nucleotide fragment of the 3′UTR of NSP1 pre-mRNA, +2 reading frame (CHHDEVISPQ; NSP1-3UTR) | increase in the accumulation of the NSP1 protein
SEQ ID NO: 162: cPEP (11 amino acids) translated from a fragment of the 5′UTR of NSP1 pre-mRNA, +3 reading frame (KPFKFSSSISH; NSP1-5UTR-11) | increase in the accumulation of the NSP1 protein
